As usually defined, the IC50 is the point on the concentration scale where inhibition reaches its midpoint. Low values mean higher potency, high ones lower potency.

Experiment [1] has as its target T1, human HSD17β13 (stable HEK293T cell line overexpressing human HSD17β13) (Homo sapiens, UniProt Q7Z5P4).
T1 construct: expressed in transfected cells
T1 sequence (Q7Z5P4 20-300): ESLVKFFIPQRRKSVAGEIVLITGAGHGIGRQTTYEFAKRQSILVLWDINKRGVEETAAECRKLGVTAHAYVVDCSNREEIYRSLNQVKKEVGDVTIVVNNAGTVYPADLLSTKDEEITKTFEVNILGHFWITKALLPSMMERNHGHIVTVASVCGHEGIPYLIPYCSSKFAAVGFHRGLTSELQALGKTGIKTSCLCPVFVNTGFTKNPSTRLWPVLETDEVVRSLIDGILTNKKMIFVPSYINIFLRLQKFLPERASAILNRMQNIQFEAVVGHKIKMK
The experiment can be described thus: HSD17β13 inhibitor cell-based screening assay (conversion of estradiol-d2 to estrone-d2 by RF-MS). To be noted: conversion of estradiol-d2 to estrone-d2 after 24 hours. The essentials:
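Cellular IC50 is based on 24-h conversion of estradiol-d2 (5 μM final) to estrone-d2, measured by RF-MS in acetonitrile-precipitated supernatants. Assay uses human HSD17β13-overexpressing HEK293T cells (7.5E3/well, 1% charcoal/dextran FBS MEM), with compounds dosed as a 9-point 1:3 series to 10 μM final. ATPlite luminescence on overexpressing and parent lines measured viability.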

Experiment [2] deals with C57BL/6J mice fed CDAA-HF. The experiment can be described thus: Fibrotic markers in livers of mice fed choline deficient high fat (CDAA-HF) diet. In kind it is in vivo, mouse. To be noted: 20, 60 and 200 mg/kg oral gavage daily, final week of 4 weeks CDAA-HF, *p<0.05 vs vehicle. The method, then:
The choline deficient amino acid defined diet (CDAA) is a well-characterized model of […] associated liver inflammation and fibrosis. The CDAA-HF mouse model is commonly used to preclinically evaluate potential therapeutic targets for non-alcoholic steatohepatitis (NASH). To investigate the effect of Compound 26 (Example 26; 20, 60, and 200 mg/kg, oral gavage, daily) on fibrotic gene and protein parameters, 10 week-old male C57BL/6J mice were fed CDAA-HF (choline deficient, L-amino acid defined, high fat diet; A16092201) for 4 weeks, with Compound 26 treatment only during the final week of the study. On the last day of the study, mice were euthanized by CO2 asphyxiation for tissue collection, and blood was collected by cardiac puncture. Livers were rapidly removed and frozen in liquid nitrogen for downstream mRNA and protein isolation. […] Statistical analysis was performed with One Way ANOVA. *p<0.05 vs vehicle treated (FIG. 1). Col1a1=Collagen; TGFB2=transforming growth factor beta 2. All procedures performed on animals were in accordance with regulations and established guidelines and were reviewed and approved by an Institutional Animal Care and Use Committee or through an ethical review process.

The structures appear in SMILES notation. A value given as a limit tells only on which side of the number the result lay.

`COc1ccc(-c2nc3sc4c(O)c(Cl)ccc4c3c(=O)n2Cc2cnco2)c(C2CC2)c1` [Example 26, 7-chloro-2-(2-cyclopropyl-4-methoxyphenyl)-8-hydroxy-3-(oxazol-5-ylmethyl)benzo[4,5]thieno[2,3-d]pyrimidin-4(3H)-one]: the IC50 in experiment [1] is below 100 nM. Further, in experiment [2] (FIG. 1a), the “liver collagen (Col1a1) mRNA” value is “significantly decreases”. The “liver TGFB2 (fibrotic cytokine)” value in experiment [2] (FIG. 1b) is recorded as “significantly decreases”. The “liver fibronectin (fibroblast activation marker)” value in experiment [2] (FIG. 1c) is listed as “significantly decreases”.
In experiment [1], `CS(=O)(=O)c1ccc(-c2nc3sc4c(O)c(Cl)ccc4c3c(=O)n2Cc2cnc(C(F)(F)F)nc2)c(C2CC2)c1` [Example 64, 7-chloro-2-(2-cyclopropyl-4-(methylsulfonyl)phenyl)-8-hydroxy-3-((2-(trifluoromethyl)pyrimidin-5-yl)methyl)benzo[4,5]thieno[2,3-d]pyrimidin-4(3H)-one] showed an IC50 below 100 nM.

The values are drawn from patent publication US20250154163A1, “Pyrimidinone-Containing 17-Beta-Hydroxysteroid Dehydrogenase Type 13 Inhibitors” (ENANTA PHARMACEUTICALS, INC., priority 2023, published 2025).
